In US10618903B2, “Heteroaryl substituted aminopyridine compounds” (BRISTOL-MYERS SQUIBB COMPANY, priority 2015, dated 2020) one finds IC50 and EC50 data, which are given here for 9 molecules.

For one experiment, the target named is IRAK4 (Homo sapiens (Human), UniProt Q9NWZ3). Kind of experiment: IRAK4 Inhibition Assay. Type of experiment: biochemical. The settings on record: ATP 500 μM; IRAK4 0.6 nM. Put shortly: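 Readout: electrophoretic (LabChip) separation of fluorescent peptide substrate from phosphorylated product after EDTA quench. Reactions ran 60 min at room temperature with 0.6 nM IRAK4, 1.5 μM peptide and 500 μM ATP; inhibition referenced to no-enzyme (100%) and vehicle (0%) controls.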

Experiment [1] concerns IL-6 levels in human whole blood stimulated with a TLR2 agonist. The experiment is described as follows: IRAK4 Whole Blood Assay (lipoteichoic acid/TLR2-stimulated IL-6). In kind it is cell-based. The settings on record: Homo sapiens, lipoteichoic acid 10 μg/mL, IL-6 readout. Put shortly: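 IL-6 was quantified by cytometric bead assay in supernatants of human blood (ACD-A) stimulated for 5 h with lipoteichoic acid at 10 μg/mL final. Compound exposure preceded stimulation for 60 min at 37 °C, 5% CO2.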

Chain of IRAK4 (Q9NWZ3 whole entry): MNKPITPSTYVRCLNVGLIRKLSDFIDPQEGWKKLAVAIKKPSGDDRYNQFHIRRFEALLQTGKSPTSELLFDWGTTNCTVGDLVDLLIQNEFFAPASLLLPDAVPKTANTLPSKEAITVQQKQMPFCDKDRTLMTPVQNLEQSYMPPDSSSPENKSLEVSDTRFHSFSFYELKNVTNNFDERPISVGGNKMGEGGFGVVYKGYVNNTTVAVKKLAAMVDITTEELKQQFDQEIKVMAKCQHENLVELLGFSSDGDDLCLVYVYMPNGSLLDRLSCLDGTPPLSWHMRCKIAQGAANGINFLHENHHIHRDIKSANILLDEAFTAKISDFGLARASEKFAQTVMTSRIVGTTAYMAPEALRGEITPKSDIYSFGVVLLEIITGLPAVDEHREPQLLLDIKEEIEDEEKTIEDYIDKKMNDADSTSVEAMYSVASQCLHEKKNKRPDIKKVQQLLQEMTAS

As for `Cn1cc(Nc2cc(-c3cnc4cc(Cl)cnn34)ncc2C(=O)NC[C@@H](F)C(C)(C)O)cn1` [Example 271, (R)-6-(7-chloroimidazo[1,2-b]pyridazin-3-yl)-N-(2-fluoro-3-hydroxy-3-methylbutyl)-4-((1-methyl-1H-pyrazol-4-yl)amino)nicotinamide], the IC50 on IRAK4 is 4 nM. In experiment [1], this molecule had an EC50 of 170 nM.
The corresponding values for `CC(C)(O)[C@H](F)CNC(=O)c1cnc(-c2cnc3cc(C#N)cnn23)cc1Nc1cnn(C(F)F)c1` [Example 273, (R)-6-(7-cyanoimidazo[1,2-b]pyridazin-3-yl)-4-((1-(difluoromethyl)-1H-pyrazol-4-yl)amino)-N-(2-fluoro-3-hydroxy-3-methylbutyl)nicotinamide] are 7 nM and 380 nM.
Take `Cn1cc(Nc2cc(-c3cnc4cc(C#N)cnn34)ncc2C(=O)NC[C@@H](F)C(C)(C)O)cn1` [Example 274, (R)-6-(7-cyanoimidazo[1,2-b]pyridazin-3-yl)-N-(2-fluoro-3-hydroxy-3-methylbutyl)-4-((1-methyl-1H-pyrazol-4-yl)amino)nicotinamide]: the IC50 on IRAK4 was 9 nM. In experiment [1], this molecule had an EC50 of 590 nM.
For `CC(C)(O)[C@H](F)CNC(=O)c1cnc(-c2cnc3cc(Cl)cnn23)cc1Nc1cnn(CC(F)(F)F)c1` [Example 275, (R)-6-(7-chloroimidazo[1,2-b]pyridazin-3-yl)-N-(2-fluoro-3-hydroxy-3-methylbutyl)-4-((1-(2,2,2-trifluoroethyl)-1H-pyrazol-4-yl)amino)nicotinamide] the same measures were 1 nM and 440 nM.
For `CC(C)(O)[C@H](F)CNC(=O)c1cnc(-c2cnc3cc(C#N)cnn23)cc1Nc1cnn(CC(F)(F)F)c1` [Example 276, (R)-6-(7-cyanoimidazo[1,2-b]pyridazin-3-yl)-N-(2-fluoro-3-hydroxy-3-methylbutyl)-4-((1-(2,2,2-trifluoroethyl)-1H-pyrazol-4-yl)amino)nicotinamide] the same measures were 2 nM and 80 nM.
For `CC(C)(F)Cn1cc(Nc2cc(-c3cnc4cc(C#N)cnn34)ncc2C(=O)NC[C@@H](F)C(C)(C)F)cn1` [Example 282, (R)-6-(7-cyanoimidazo[1,2-b]pyridazin-3-yl)-N-(2,3-difluoro-3-methylbutyl)-4-((1-(2-fluoro-2-methylpropyl)-1H-pyrazol-4-yl)amino)nicotinamide], on IRAK4, the IC50 was 2 nM. This molecule came in with an EC50 in experiment [1] of 710 nM.
The corresponding values for `CC(C)(O)[C@H](F)CNC(=O)c1cnc(-c2cnc3cc(Cl)cnn23)cc1Nc1cnn(CCCF)c1` [Example 283, (R)-6-(7-chloroimidazo[1,2-b]pyridazin-3-yl)-N-(2-fluoro-3-hydroxy-3-methylbutyl)-4-((1-(3-fluoropropyl)-1H-pyrazol-4-yl)amino)nicotinamide] are 2 nM and 340 nM.
The corresponding values for `CC(C)(O)[C@H](F)CNC(=O)c1cnc(-c2cnc3cc(Cl)cnn23)cc1Nc1cnn(C2CCC2)c1` [Example 285, (R)-6-(7-chloroimidazo[1,2-b]pyridazin-3-yl)-4-((1-cyclobutyl-1H-pyrazol-4-yl)amino)-N-(2-fluoro-3-hydroxy-3-methylbutyl)nicotinamide] are 3 nM and 370 nM.
The corresponding values for `CC(C)(O)[C@H](F)CNC(=O)c1cnc(-c2cnc3cc(C#N)cnn23)cc1N[C@@H]1CCN(c2ncc(F)cn2)C1` [Example 288, 6-(7-cyanoimidazo[1,2-b]pyridazin-3-yl)-N—((R)-2-fluoro-3-hydroxy-3-methylbutyl)-4-(((R)-1-(5-fluoropyrimidin-2-yl)pyrrolidin-3-yl)amino)nicotinamide] are 9 nM and 390 nM.

The IC50 is the concentration at which inhibition is half-maximal. As usually defined, the EC50 is the concentration at which the effect is half-maximal.
